What was measured:
[1] = test system: Asian Citrus Psyllid (ACP, Diaphorina citri); conditions: chemical repellants, literature [11-13]; cited from earlier work
Citrus (Persian Lime) = assay: Phytotoxicity testing on Citrus (Persian Lime); assay type: in vivo; design: key: −: No plant tissue damage; +: Minimal; ++: moderate; +++: severe plant tissue damage
Text: (§1) Tables 2 and 3, Example 2, illustrate phytotoxicity testing of embodiments of the present disclosure.

Tomato sp = assay: Phytotoxicity testing on Tomato sp; assay type: in vivo; design: key: −: No plant tissue damage; +: Minimal; ++: moderate; +++: severe plant tissue damage
Text: as §1

Vinca sp = assay: Phytotoxicity (plant tissue injury) testing on Vinca sp.; assay type: in vivo; design: key: −: No plant tissue damage; +: Minimal; ++: moderate; +++: severe plant tissue damage
Method: FIGS. 2A to 2C illustrate phytotoxicity (plant tissue injury) results. FIG. 2A illustrates untreated, FIG. 2B illustrates OSCF nanoparticle, and FIG. 2C illustrates OSCF nanogel film materials, sprayed on Vinca. sp. Under green-house conditions, approximately 5 mL of synthesized formula was sprayed on plants at 7:30 AM on the test day. After 72 hrs, all treatments were non-phytotoxic (−) to plants.
FIG. 1 illustrates digital photographs of some representative citrus leaf surfaces before and after rigorous spray washing with water (simulating over 6 inches of rainfall). Phytotoxicity studies were carried out using Vinca sp. (an ornamental plant, highly susceptible to phytotoxicity; purchased from Home Depot).
as §1

[2] = test system: Asian Citrus Psyllid (ACP, Diaphorina citri); conditions: field trials, literature [7-9]; cited from earlier work

CSSC [dimethyldisulfide (DMDS), dimethyldisulfide]
ACP repellant properties [1]: moderate ACP repellant properties

O=S(=O)([O-])[O-].[Cu+2] [CuSO4]
Phytotoxicity, plant tissue damage (Citrus (Persian Lime); 24 hr): +
Phytotoxicity, plant tissue damage (Citrus (Persian Lime); 48 hr): ++
Phytotoxicity, plant tissue damage (Citrus (Persian Lime); 72 hr): +++
Phytotoxicity, plant tissue damage (Tomato sp; 24 hr): +
Phytotoxicity, plant tissue damage (Tomato sp; 48 hr): ++
Phytotoxicity, plant tissue damage (Tomato sp; 72 hr): +++
Phytotoxicity, plant tissue damage (Vinca sp; 24 hr, Table 2): +
Phytotoxicity, plant tissue damage (Vinca sp; 24 hr, Table 3): +
Phytotoxicity, plant tissue damage (Vinca sp; 48 hr, Table 2): ++
Phytotoxicity, plant tissue damage (Vinca sp; 48 hr, Table 3): ++
Phytotoxicity, plant tissue damage (Vinca sp; 72 hr, Table 2): +++
Phytotoxicity, plant tissue damage (Vinca sp; 72 hr, Table 3): +++

CN1COCN(Cc2cnc(Cl)s2)/C1=N\[N+](=O)[O-] [thiamethoxam]
Controlling ACP populations [2]: effective in controlling ACP populations

CCOP(=S)(OCC)Oc1nc(Cl)c(Cl)cc1Cl [chlorpyrifos]
Controlling ACP populations [2]: effective in controlling ACP populations

O=[N+]([O-])NC1=NCCN1Cc1ccc(Cl)nc1 [imidacloprid]
Controlling ACP populations [2]: effective in controlling ACP populations

CN/C(=N\[N+](=O)[O-])NCc1cnc(Cl)s1 [clothianidin]
Controlling ACP populations [2]: effective in controlling ACP populations

CC1(C)C(C(=O)OC(C#N)c2cccc(Oc3ccccc3)c2)C1(C)C (stereo not drawn) [fenpropathrin]
Controlling ACP populations [2]: effective in controlling ACP populations

Source: US20150342194A1, “NON-PHYTOTOXIC COMPOSITE POLYMER FILM BARRIER AS A REPELLENT FOR CONTROLLING INFECTION” (priority 2014, published 2015)
